Drawing on the Bradley open melting point set (2014), this text covers melting point for 66 molecules.

The structures appear in SMILES notation. Values joined by “and” are separate entries in the source; they are usually repeats but may differ in a detail not shown here. Equal entries are not always repeated.

For orientation: melting point means the temperature, or range, at which the solid turns liquid.

`COC(=O)CCCCCCCCC(=O)OC` [dimethyl_sebacate] came in with a melting point of 30 °C. With `Clc1cccc2ccccc12` [1-Chloronaphthalene] the figure was -21.5 °C. With `C=Cc1ccc(B(O)O)cc1` [4-vinylbenzeneboronic acid] the figure was 190 °C; with `O=C(O)CCCCCCCCCCC(=O)O` [dodecanedioic acid], 129 °C; with `Cc1ccnc(C)c1` [2,4-lutidine], -60 °C. Molecule `CC(C)N` [isopropylamine] returned a melting point of -101 °C.

With `O=C(O)/C(=C/c1ccccc1[N+](=O)[O-])c1ccccc1F` [(E)-2-(2-Fluorophenyl)-3-(2-nitrophenyl)propenoic acid], the melting point stood at 212 °C. Under `CCCCC(=O)O` [pentanoic acid] stands -33.9 °C and -33.7 °C. Under `CC12CCC(=O)CC1CCC1C2CCC2(C)C1CCC21OCCO1` (stereo unspecified) stands 188 °C; under `O=C(O)c1cccc(C(=O)c2ccccc2)c1` [3-benzoylbenzoic acid], 164 °C. For the molecule `CC(=O)OC[C@H]1O[C@@H](S)[C@H](OC(C)=O)[C@@H](OC(C)=O)[C@@H]1OC(C)=O` [1-thio-beta-D-glucose tetraacetate], the melting point came out at 116 °C. Under `CCSc1ncccc1C(=O)Cl` [2-(ethylthio)nicotinoyl chloride] stands 51 °C; under `O=CCCc1ccccc1` [3-phenylpropionaldehyde], -42 °C. Under `CC1(C)C=Nc2ccccc21` [3,3-dimethyl-3H-indole] stands 228 °C; under `ON=C1/CCCCC1` [N-Hydroxycyclohexanimine], 90 °C. With `O=C(CCl)N1CCOCC1` [4-(chloroacetyl)morpholine] the figure was 29 °C; with `OC(c1ccccc1)(c1ccccc1)c1ccccc1` [triphenylmethanol], 163 °C; with `CCOC(=O)c1ccccn1` [ethyl picolinate], 2 °C. For `CCCCCCCCCCOc1ccc(C(=O)O)cc1` [4-n-decyloxybenzoic acid], the melting point was determined as 97 °C. Under `CCCCCCCCCCC(O)CCCCCCCCCC` [11-heneicosanol] stands 72 °C; under `CC(Cc1ccccc1)NC(C#N)c1ccccc1` (stereo unspecified) [amphetaminil], 85 °C; under `CC(=O)Nc1ccc(Br)c(C(F)(F)F)c1` [4'-bromo-3'-(trifluoromethyl)acetanilide], 118 °C. Under `Ic1ccc(I)cc1` [1,4-diiodobenzene] stands 131 °C. With `c1ccc2ccccc2c1` [Naphthalene] the figure was 82 °C. Turning to `Cc1ccc(C)c(Br)c1` [2-bromo-p-xylene], the melting point came to 10 °C. With `ICCI` [1,2-diiodoethane] the figure was 81 °C; with `O=c1[nH]c2ccc([N+](=O)[O-])cc2o1` [6-nitro-2(3h)-benzoxazolone], 246 °C. With `CC(C)CCCC(C)C1CCC2C3CCC4CCCCC4(C)C3CCC12C` (stereo unspecified) [cholestane] the figure was 80 °C; with `O=Cc1cccc2c1CCOC2=O` [erythrocentaurin], 140 °C. For the molecule `OCCCCCCO` [Hexane-1,6-Diol], the melting point was 45 °C.

The molecule `CC(C)CC=CB(O)O` [4-methyl-1-pentenylboronic acid] registered a melting point of 101 °C.

The molecule `CCOC(C)=O` [ethyl acetate] gave a melting point of -84 °C. Under `COC(=O)CC(=O)OC` [Dimethyl malonate] stands -62 °C; under `COC(=O)n1nc(C)cc1C` [methyl 3,5-dimethyl-1H-pyrazole-1-carboxylate], 52 °C. For the molecule `COc1ccc2c(c1)CC1(CCC(O)(c3ccc(C(C)(C)C)cc3)CC1)C2=O` (stereo unspecified), the melting point came to 166 °C. In the case of `O=Cc1ccc(O)cc1` [4-hydroxybenzaldehyde], the melting point is 118 °C. With `O=C1Cc2c1cccc2[N+](=O)[O-]` [2-nitrobicyclo[4.2.0]octa-1,3,5-trien-7-one] the figure was 116 °C. Consider `c1cc2cccc3c4cccc5cccc(c(c1)c23)c54` [Perylene], for which the melting point was determined as 278 °C. Under `Nc1ccc(Cl)c(Cl)c1` [3,4-Dichloroaniline] stands 72 °C; under `CC(C)(C)C(N)=S` [2,2,2-trimethylthioacetamide], 115 °C; under `BrCCCBr` [1,3-dibromopropane], -34 °C. As to `CC(O)C(=O)O` (stereo unspecified) [lactic acid], the melting point was found to be 18 °C. On to `CC(CCC(=O)O)C1CCC2C3CCC4CC(=O)CCC4(C)C3CCC12C` (stereo unspecified) [3-oxocholan-24-oic acid], for which the melting point stood at 140 °C. Consider `C=CCCC=C` [1,5-hexadiene], for which the melting point is -141 °C.

With `Clc1nsnc1-c1cccnc1` [3-chloro-4-(3-pyridyl)-1,2,5-thiadiazole], the melting point came out at 56 °C.

In turn, `N#Cc1ccc(C2CCCc3cncn32)cc1` (stereo unspecified) [fadrozole] registered a melting point of 117 °C.

The molecule `CCOC(=O)C1=CN=NC1C` (stereo unspecified) [ethyl 3-methyl-1H-pyrazole-4-carboxylate] gave a melting point of 137 °C. With `Oc1cccc(O)c1` [resorcinol] the figure was 111 °C; with `COc1ccc2cc(C(C)CO)ccc2c1` (stereo unspecified) [naproxol], 87 °C; with `NC1=NCCS1` [2-amino-2-thiazoline], 80 °C. Under `O=[N+]([O-])c1ccc2c(c1)-c1cccc([N+](=O)[O-])c1C2` [1,6-dinitro-9H-fluorene] stands 286 °C; under `CC(=O)Nc1ccccc1S(C)(=O)=O` [2'-(methylsulfonyl)acetanilide], 145 °C.

`COC(=O)c1ccc([N+](=O)[O-])cc1` [methyl_4-nitrobenzoate] came in with a melting point of 96 °C.

For the molecule `COc1ccc(C(=O)Cl)cc1` [4-methoxybenzoyl chloride], the melting point amounted to 22 °C. With `O=C(C(=O)c1ccccc1)c1ccccc1` [benzil] the figure was 95 °C; with `Cc1ccccc1C#N` [o-tolunitrile], -14 °C. With `OC/C(Br)=C(\Br)CO` [trans-2,3-dibromo-2-butene-1,4-diol] the figure was 113 °C; with `CC12CCC3C(CCC4CC(=O)CCC43C)C1CCC2O` (stereo unspecified) [17-hydroxyandrostan-3-one], 121 °C. With `CCOC(=O)/C=C/C(=O)OCC` [Diethyl (2E)-but-2-enedioate] the figure was 1 °C. With `CN(C)c1ccc(/C=C(/C#N)c2nc(-c3ccc(Cl)cc3)cs2)cc1`, the melting point stood at 134 °C.

With `O=C(O)c1cc(Cl)c([N+](=O)[O-])cc1[N+](=O)[O-]` [5-chloro-2,4-dinitrobenzoic acid], the melting point came to 181 °C. Under `Fc1ccc(-c2ccc(F)cc2)cc1` [4,4'-difluorobiphenyl] stands 88 °C; under `O=C1CCC(=O)N1Br` [n-bromosuccinimide], 180 °C; under `C1CCCCC1` [Cyclohexane], 7 °C.

Take `COc1cc(Cc2cnc(N)nc2N)cc(OC)c1OC` [Trimethoprim]: the melting point turned out to be 201 °C.

`NC1=C(c2ccccc2)C(=O)c2ccccc21` [3-amino-2-phenylindenone] displayed a melting point of 271 °C.
